Measured values published in publication PMC10011554, “BET inhibitor trotabresib in heavily pretreated patients with solid tumors and diffuse large B-cell lymphomas” (Nature Communications, 2023).
Values joined by “and” are separate entries in the source; they are usually repeats but may differ in a detail not shown here. Equal entries are not always repeated. Where two headings read alike, the source gives them in different places.

Key:
BCRP or MRP2 = system: BCRP or MRP2; parameters: method as in Investigator's Brochure; conditions: BCRP or MRP2, ref Investigator's Brochure; cited from earlier work
[1] = parameters: method as in Investigator's Brochure; conditions: ref Investigator's Brochure, cited from earlier work
[2] = parameters: method as in Investigator's Brochure; conditions: rats, IV, non-radiolabeled, ref Investigator's Brochure; cited from earlier work
[3] = system: CYP1A2, CYP2A6, CYP2B6, CYP2C8, CYP2C9, CYP2C19, CYP2D6, CYP2E1, and CYP3A4/5; parameters: method as in Investigator's Brochure; conditions: all nine isozymes tested, ref Investigator's Brochure; cited from earlier work
RC-K8 (ABC DLBCL) = system: RC-K8 (ABC DLBCL); parameters: method as in Report CC-90010-Pharm-1018; conditions: RC-K8, Experiment 1, ref Report CC-90010-Pharm-1018; read-out: absolute IC50, proliferation; cited from earlier work
SU-DHL-2 (ABC DLBCL) = system: SU-DHL-2 (ABC DLBCL); parameters: method as in Report CC-90010-Pharm-1018; conditions: SU DHL 2, Experiment 2, ref Report CC-90010-Pharm-1018; read-out: absolute IC50, proliferation; cited from earlier work
[4] = system: MYC gene expression in Raji Burkitt's lymphoma cells; parameters: method as in Investigator's Brochure; conditions: ref Investigator's Brochure, read-out: mean IC50, inhibition of MYC gene expression; cited from earlier work
CYP2D6 = system: CYP2D6; parameters: method as in Investigator's Brochure; conditions: CYP2D6, ref Investigator's Brochure; read-out: IC50, direct inhibition; cited from earlier work
CCR1 mRNA = experiment: Blood CCR1 mRNA levels (QuantiGene, normalized to PPIB); type: in vivo, human; conditions: for decrease of blood PD marker CCR1 achieved: part A
Experimental: Changes in peripheral CCR1 mRNA levels, expression of which is modulated following BET inhibition, were assessed using QuantiGene technology (Thermo Fisher Scientific) and normalized to the expression of a control gene, peptidylprolyl isomerase B (PPIB). The data were presented as a percentage of pre-dose mRNA levels.

CYP2C9 = system: CYP2C9; parameters: method as in Investigator's Brochure; conditions: CYP2C9, ref Investigator's Brochure; read-out: IC50, direct inhibition; cited from earlier work
OCI-LY-3 (ABC DLBCL) = system: OCI-LY-3 (ABC DLBCL); parameters: method as in Report CC-90010-Pharm-1018; conditions: OCI-LY-3, Experiment 1, ref Report CC-90010-Pharm-1018; read-out: absolute IC50, proliferation; cited from earlier work
[5] = system: GLI1 gene expression in MIA-PaCa-2 pancreatic adenocarcinoma cells; parameters: method as in Investigator's Brochure; conditions: MIA-PaCa-2 cells, ref Investigator's Brochure; read-out: IC50, inhibition of GLI1 gene expression; cited from earlier work
TMD8 (ABC DLBCL) = system: TMD8 (ABC DLBCL); parameters: method as in Report CC-90010-Pharm-1018; conditions: TMD8, Experiment 1, ref Report CC-90010-Pharm-1018; read-out: absolute IC50, proliferation; cited from earlier work
U-2932 (DOX-R) = system: U-2932 (DOX-R); parameters: method as in Report CC-90010-Pharm-1018; conditions: Table 2, ref Report CC-90010-Pharm-1018, read-out: absolute IC50, proliferation; cited from earlier work
P-gp = system: P-gp; parameters: method as in Investigator's Brochure; conditions: ref Investigator's Brochure; cited from earlier work
WSU-DLCL2 (DOX-R) = system: WSU-DLCL2 (DOX-R); parameters: method as in Report CC-90010-Pharm-1018; conditions: Table 2, ref Report CC-90010-Pharm-1018, read-out: absolute IC50, proliferation; cited from earlier work
[6] = system: CYP1A2, CYP2B6 and CYP3A4 mRNA; parameters: method as in Investigator's Brochure; conditions: 0.01 to 10 µM, up to 3 days, CYP1A2, CYP2B6, CYP3A4, ref Investigator's Brochure; cited from earlier work
three TNBC models = system: three TNBC models; parameters: method as in Investigator's Brochure; conditions: ref Investigator's Brochure, read-out: overall mean IC50, colony formation; cited from earlier work
COH70 TNBC PDX = system: COH70 TNBC PDX; parameters: method as in Unpublished data from Celgene Corporation; conditions: Day 38, ref Unpublished data from Celgene Corporation, cited from earlier work
[7] = system: CYP1A2, CYP2A6, CYP2B6, CYP2E1 and CYP3A4/5; parameters: method as in Investigator's Brochure; conditions: CYP1A2, CYP2A6, CYP2B6, CYP2E1 and CYP3A4/5, ref Investigator's Brochure; cited from earlier work

Cn1cc(-c2cc(S(C)(=O)=O)ccc2OCC2CC2)c2ccccc2c1=O [trotabresib]
transporter inhibition (BCRP or MRP2): not an inhibitor
severely toxic dose ([1]; 4-week rat study, 3 days on/4 days off): ≥ 20 mg base/kg/dose
overarching rat STD10 ([1]; 3 days-on/4 days-off schedule): 20 mg base/kg/dose
STD10 ([1]; female rats): 20 mg base/kg/dose
STD10 ([1]; male rats): 30 mg base/kg/dose
functional observational battery (FOB) effects ([1]; rat): no CC-90010-related FOB effects
mean exposure corresponding to the rat STD10 [1]: 52800 ng·h/mL
dose excreted intact in bile or urine, average [2]: 0.9 % of the dose
time-dependent inhibition [3]: little to no time-dependent
IC50 (RC-K8 (ABC DLBCL)): 0.13 µM
IC50 (SU-DHL-2 (ABC DLBCL)): 0.1 µM
IC50 [4]: 0.06 µM
IC50 (CYP2D6): ≥ 13.9 µM
decrease of blood PD marker CCR1 achieved (CCR1 mRNA; 30 mg 3-days-on/11-days off, 4 hours post last dose in the first cycle): ≥ 50%
decrease of blood PD marker CCR1 achieved (CCR1 mRNA; 45 mg 4-days-on/24-days-off): ≥ 50%
percentage of baseline CCR1 expression, individual patients (CCR1 mRNA; part B, 30 mg/day (n = 2), 4 h after last dose): 13.4467 % of baseline and 130.198 % of baseline
percentage of baseline CCR1 expression, individual patients (CCR1 mRNA; part B, 30 mg/day (n = 3), 4 h after first dose): 50.27 % of baseline and 55.3963 % of baseline and 80.5103 % of baseline
Mean CCR1 mRNA level (CCR1 mRNA; part B, 45 mg/day 4 days on/24 days off, 4 h after the first and last dose): < 50 % of baseline
mean reduction of blood CCR1 mRNA (CCR1 mRNA; part B, 45 mg/day 4 days on/24 days off, after the first and last dose): > 50%
percentage of baseline CCR1 expression, individual patients Pt 1-16 (CCR1 mRNA; part B, 45 mg/day 4 days on/24 days off, time 2 h): 30.5369 % of baseline and 28.4986 % of baseline and 30.4914 % of baseline and 56.7025 % of baseline and 34.2349 % of baseline and 126.292 % of baseline and 41.5689 % of baseline and 39.5781 % of baseline and 38.6952 % of baseline
percentage of baseline CCR1 expression, individual patients Pt 1-16 (CCR1 mRNA; part B, 45 mg/day 4 days on/24 days off, time 72 h): 11.6428 % of baseline and 66.6434 % of baseline and 61.1466 % of baseline and 71.42 % of baseline and 107.064 % of baseline and 92.4076 % of baseline and 206.706 % of baseline and 11.5951 % of baseline and 29.4034 % of baseline and 32.6074 % of baseline and 46.3108 % of baseline and 35.5399 % of baseline and 51.254 % of baseline and 16.3541 % of baseline and 56.3318 % of baseline and 47.472 % of baseline
percentage of baseline CCR1 expression, individual patients Pt 1-16 (CCR1 mRNA; part B, 45 mg/day 4 days on/24 days off, time 74 h): 7.664 % of baseline and 43.5783 % of baseline and 101.397 % of baseline and 68.6148 % of baseline and 66.624 % of baseline and 90.5744 % of baseline and 6.3621 % of baseline and 11.918 % of baseline and 23.0451 % of baseline and 38.3287 % of baseline and 18.1003 % of baseline and 30.2477 % of baseline and 30.0183 % of baseline and 30.3305 % of baseline
percentage of baseline CCR1 expression, individual patients Pt 1-16 (CCR1 mRNA; part B, 45 mg/day 4 days on/24 days off, time 76 h): 7.416 % of baseline and 22.7163 % of baseline and 45.8741 % of baseline and 84.9845 % of baseline and 62.1329 % of baseline and 102.299 % of baseline and 97.8745 % of baseline and 12.7872 % of baseline and 26.7231 % of baseline and 38.7251 % of baseline and 59.7173 % of baseline and 32.5849 % of baseline and 15.5412 % of baseline and 32.2909 % of baseline and 34.1593 % of baseline
percentage of baseline CCR1 expression, individual patients Pt 1-16 (CCR1 mRNA; part B, 45 mg/day 4 days on/24 days off, time 96 h): 18.2209 % of baseline and 101.061 % of baseline and 57.0673 % of baseline and 66.6995 % of baseline and 126.329 % of baseline and 107.431 % of baseline and 11.7759 % of baseline and 20.7746 % of baseline and 24.4742 % of baseline and 39.7466 % of baseline and 30.1049 % of baseline and 35.253 % of baseline and 12.8666 % of baseline and 60.4272 % of baseline and 48.4025 % of baseline
percentage of baseline CCR1 expression, individual patients Pt 1-16 (CCR1 mRNA; part B, 45 mg/day 4 days on/24 days off, time 168 h): 1110.93 % of baseline and 46.7528 % of baseline and 137.362 % of baseline and 245.348 % of baseline and 178.841 % of baseline and 306.585 % of baseline and 142.224 % of baseline and 191.429 % of baseline and 72.8857 % of baseline and 69.6406 % of baseline and 101.659 % of baseline and 69.3899 % of baseline and 160.385 % of baseline and 78.4141 % of baseline and 220.588 % of baseline
percentage of baseline CCR1 expression, individual patients Pt 1-16 (CCR1 mRNA; part B, 45 mg/day 4 days on/24 days off, time 192 h): 44.5123 % of baseline and 125.959 % of baseline and 259.615 % of baseline and 202.75 % of baseline and 242.493 % of baseline and 146.374 % of baseline and 154.035 % of baseline and 288.7 % of baseline and 109.004 % of baseline and 72.27 % of baseline and 78.3761 % of baseline and 79.513 % of baseline and 168.811 % of baseline and 147.701 % of baseline and 179.93 % of baseline
percentage of baseline CCR1 expression, individual patients (CCR1 mRNA; part B, 45 mg/day (n = 15), 4 h after last dose): 26.7231 % of baseline and 32.2909 % of baseline and 32.5849 % of baseline and 34.1593 % of baseline and 38.7251 % of baseline and 45.8741 % of baseline and 59.7173 % of baseline and 62.1329 % of baseline and 84.9845 % of baseline and 97.8745 % of baseline and 102.299 % of baseline and 7.416 % of baseline and 12.7872 % of baseline and 15.5412 % of baseline and 22.7163 % of baseline
percentage of baseline CCR1 expression, individual patients (CCR1 mRNA; part B, 45 mg/day (n = 16), 4 h after first dose): 31.799 % of baseline and 32.0053 % of baseline and 36.1061 % of baseline and 40.3422 % of baseline and 46.5342 % of baseline and 46.6648 % of baseline and 52.9092 % of baseline and 58.7813 % of baseline and 59.2329 % of baseline and 60.0574 % of baseline and 60.1703 % of baseline and 87.3968 % of baseline and 24.9251 % of baseline and 27.9014 % of baseline and 28.1552 % of baseline and 31.5602 % of baseline
IC50 (CYP2C9): ≥ 13.9 µM
IC50 (OCI-LY-3 (ABC DLBCL)): 0.51 µM
IC50 [5]: 0.24 µM
IC50 (TMD8 (ABC DLBCL)): 0.19 µM
IC50 (U-2932 (DOX-R)): 0.348 µM
transporter substrate status (P-gp): substrate of P-gp
IC50 (WSU-DLCL2 (DOX-R)): ~0.36 µM
increase in mRNA over vehicle control [6]: < 2 fold
IC50 (three TNBC models): 0.11 ± 0.04 µM
mean percent TGI (COH70 TNBC PDX; COH70, 12.5 mg/kg/dose PO QD 3 days on/4 days off): 64%
mean percent TGI (COH70 TNBC PDX; COH70, 16 mg/kg/dose PO QD 3 days on/4 days off): 68%
mean percent TGI (COH70 TNBC PDX; COH70, 20 mg/kg/dose PO QD 3 days on/4 days off): 72%
direct inhibitory effect [7]: little to no direct inhibitory effect
